Data on 19 molecules can be found in patent publication US11999727B2 (Tango Therapeutics, Inc., priority 2020, dated 2024).

For assay [1], the target named is T1, PRMT5 (Homo sapiens, UniProt O14744).
T1 construct: purchased Viva (custom protein)
Nature of the assay: PRMT5 biochemical IC50 assay with SAM as cofactor. The following applies: PRMT5, SAM as cofactor; read-out: SAM IC50.

For assay [2], the system named is HAP1 MTAP-intact cell line. Briefly: SDMA in-cell western assay, HAP1 MTAP-intact. Type of assay: cell-based. The conditions noted are these: Homo sapiens, HAP1, SDMA in-cell western, HAP1 MTAP-intact; read-out: MTAP HAP1 intact IC50. The essentials:
(§1)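 IC50 values come from SDMA signal quantified by in-cell western in two HAP1 lines, one with native MTAP levels and one lacking MTAP.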

Assay [3] has as its target T1, PRMT5. Nature of the assay: PRMT5 biochemical IC50 assay with MTA as cofactor. The conditions noted are these: PRMT5, MTA as cofactor; read-out: MTA IC50.
Assay [4] deals with T1, PRMT5. Briefly: PRMT5 biochemical IC50 assay with no cofactor. The following applies: PRMT5, no cofactor; read-out: No Cofactor/rel IC50. From the text:
Table 1 indicates IC50 values (μM) against PRMT5 for exemplary compounds in the presence of SAM as cofactor, with no cofactor, and with MTA as cofactor, respectively (columns 4-6). […] Ki values can be calculated from the IC50 values as described in the Examples section. As detailed in the Examples section, for the assay performed in the presence of SAM, IC50=Ki×1.5 (Ki=IC50/1.5).

Assay [5] has as its system HAP1 MTAP-deleted cell line. Briefly: Viability assay, MTAP-deleted cell line. Type of assay: cell-based. The conditions noted are these: Homo sapiens, HAP1, viability assay, MTAP-deleted cell line; read-out: HAP1 MTAP deleted viability. From the text: Table 1 additionally indicates IC50 values in a viability assay for the MTAP-deleted cell line (column 10), indicating the effect of treatment with compound on cell survival.

The test system of assay [6] is HAP1 MTAP-deleted cell line. Nature of the assay: SDMA in-cell western assay, HAP1 MTAP-deleted. In kind it is cell-based. The following applies: for IC50: Homo sapiens, HAP1, SDMA in-cell western, HAP1 MTAP-deleted; for MTAP intact/deleted ratio: SDMA in-cell western. A digest of the protocol: as §1
[7] abbreviates: read-out: HAP1 MTAP deleted IC50.
Where [8] appears, read: IC50 ratio HAP1 MTAP-intact vs HAP1 MTAP-deleted.

SMILES strings stand for the structures. Some results are limits rather than exact numbers.

T1 sequence (O14744 whole entry): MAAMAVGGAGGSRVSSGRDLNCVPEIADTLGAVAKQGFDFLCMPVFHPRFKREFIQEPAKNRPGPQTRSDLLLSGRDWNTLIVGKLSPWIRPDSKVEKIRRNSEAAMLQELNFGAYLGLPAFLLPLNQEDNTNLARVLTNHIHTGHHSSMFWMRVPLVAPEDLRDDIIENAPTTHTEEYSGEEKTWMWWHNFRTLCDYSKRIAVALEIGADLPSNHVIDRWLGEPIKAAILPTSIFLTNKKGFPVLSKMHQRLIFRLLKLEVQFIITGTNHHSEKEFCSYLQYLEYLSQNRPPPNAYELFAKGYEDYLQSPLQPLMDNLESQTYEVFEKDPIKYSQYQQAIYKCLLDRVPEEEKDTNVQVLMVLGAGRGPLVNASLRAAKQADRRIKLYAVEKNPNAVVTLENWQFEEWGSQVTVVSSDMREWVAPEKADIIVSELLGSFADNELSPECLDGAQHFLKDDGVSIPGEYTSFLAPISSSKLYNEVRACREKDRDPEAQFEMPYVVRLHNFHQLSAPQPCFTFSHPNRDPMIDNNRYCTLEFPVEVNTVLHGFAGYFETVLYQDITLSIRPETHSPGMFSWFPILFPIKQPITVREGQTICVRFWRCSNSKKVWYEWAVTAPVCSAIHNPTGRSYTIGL
T1 sequence (Q9BQA1 whole entry partner): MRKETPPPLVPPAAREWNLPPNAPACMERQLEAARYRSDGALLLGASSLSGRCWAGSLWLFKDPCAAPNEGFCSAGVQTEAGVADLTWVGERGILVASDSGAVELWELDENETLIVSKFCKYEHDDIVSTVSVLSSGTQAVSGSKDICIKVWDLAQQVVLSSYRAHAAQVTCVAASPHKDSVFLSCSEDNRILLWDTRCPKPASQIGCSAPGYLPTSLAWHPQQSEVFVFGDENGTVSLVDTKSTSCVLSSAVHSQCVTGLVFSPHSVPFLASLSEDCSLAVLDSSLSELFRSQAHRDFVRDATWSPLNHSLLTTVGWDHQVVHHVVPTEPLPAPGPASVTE

For `Cc1cc(NC(=O)C(=O)N2C[C@H](C)CC[C@H]2c2ccc3nn(C)cc3c2)cnc1N` (single isomer, unassigned) [Compound 1044], the IC50 is 50 to 500 nM on PRMT5 [1]; 100 to 1000 nM in assay [2]; below 50 nM on PRMT5 [3]; below 50 nM on PRMT5 [4]; below 1000 nM in assay [5]; below 100 nM in assay [6] (read-out: HAP 1 MTAP deleted IC50). Further, in assay [6] (IC50 ratio HAP1 MTAP-intact / HAP1 MTAP-deleted), the MTAP intact/deleted ratio result was “A (an IC50 ratio greater than or equal to 10 fold)”.

As for `Cc1cncc(NC(=O)C(=O)N2C[C@@H](C)CC[C@H]2c2cccc(F)c2)c1` (single isomer, unassigned) [Compound 1080], the IC50 was above 500 nM at PRMT5 [1]; above 1000 nM in assay [2]; above 500 nM at PRMT5 [3]; above 500 nM on PRMT5 [4]; above 10000 nM in assay [5]; above 1000 nM in assay [6] (setting [7]). Besides, the MTAP intact/deleted ratio result in assay [6] (setting [8]) is on record as “C (an IC50 ratio of less than 3 fold)”.

Regarding `Cc1cc(NC(=O)C(=O)N2C[C@@H](C)CC[C@@H]2c2ccc(N)cc2)cnc1N` (single isomer, unassigned) [Compound 1081], the IC50 is above 500 nM on PRMT5 [1]; above 1000 nM in assay [2]; above 500 nM at PRMT5 [3]; above 500 nM on PRMT5 [4]; above 10000 nM in assay [5]; above 1000 nM in assay [6] (setting [7]). The MTAP intact/deleted ratio result in assay [6] (setting [8]) is on record as “B (an IC50 ratio greater than or equal to 3 fold but lower than 10 fold)”.

In the case of `C[C@@H]1CC[C@@H](c2cc(F)cc(Cl)c2)N(C(=O)C(=O)Nc2cncc(C(N)=O)c2)C1` (single isomer, unassigned) [Compound 1084], the IC50 on PRMT5 [1] was above 500 nM; in assay [2], above 1000 nM; at PRMT5 [3], above 500 nM; on PRMT5 [4], above 500 nM; in assay [5] it was above 10000 nM; in assay [6] (setting [7]), above 1000 nM. The MTAP intact/deleted ratio result in assay [6] (setting [8]) is “C (an IC50 ratio of less than 3 fold)”.

Regarding `Cc1cc(NC(=O)C(=O)N2C[C@H](C)[C@@H](OC(C)C)C[C@H]2c2ccccc2)cnc1N` (single isomer, unassigned) [Compound 1088], the IC50 at PRMT5 [1] is 50 to 500 nM; in assay [2] it was 100 to 1000 nM; at PRMT5 [3], below 50 nM; on PRMT5 [4] it was below 50 nM; in assay [5], below 1000 nM; in assay [6] (setting [7]), below 100 nM. Moreover, the MTAP intact/deleted ratio entry in assay [6] (setting [8]) is recorded as “A (an IC50 ratio greater than or equal to 10 fold)”.

Regarding `CCc1cc(NC(=O)C(=O)N2C[C@H](C)[C@H](OC)C[C@H]2c2ccc(N3CCN(C)CC3)cc2)cnc1N` (single isomer, unassigned) [Compound 1089], the IC50 is 50 to 500 nM on PRMT5 [1]; 100 to 1000 nM in assay [2]; below 50 nM on PRMT5 [3]; 50 to 500 nM at PRMT5 [4]; below 1000 nM in assay [5]; below 100 nM in assay [6] (setting [7]). Moreover, in assay [6] (setting [8]), the MTAP intact/deleted ratio entry is reported as “A (an IC50 ratio greater than or equal to 10 fold)”.

Take `CCc1cc(NC(=O)C(=O)N2C[C@H](C)CC[C@H]2c2ccc(N3CCN(CC)CC3)cc2)cnc1N` (single isomer, unassigned) [Compound 1097]: the IC50 on PRMT5 [1] is 50 to 500 nM; in assay [2], 100 to 1000 nM; at PRMT5 [3], below 50 nM; on PRMT5 [4], below 50 nM; in assay [5], below 1000 nM; in assay [6] (setting [7]), below 100 nM. Besides, the MTAP intact/deleted ratio result in assay [6] (setting [8]) is recorded as “A (an IC50 ratio greater than or equal to 10 fold)”.

Consider `CCc1cc(NC(=O)C(=O)N2C[C@@H](C)CC[C@@H]2c2ccc(N3CCN(C)CC3)nc2)cnc1N` (single isomer, unassigned) [Compound 1103], for which the IC50 at PRMT5 [1] is 50 to 500 nM; in assay [2], 100 to 1000 nM; on PRMT5 [3], below 50 nM; at PRMT5 [4], below 50 nM; in assay [5] it was below 1000 nM; in assay [6] (setting [7]) it was below 100 nM. The MTAP intact/deleted ratio result in assay [6] (setting [8]) is “A (an IC50 ratio greater than or equal to 10 fold)”.

Turning to `COc1ncc(NC(=O)C(=O)N2C[C@@H](C)CC[C@@H]2c2ccc3sc(C4CC(C)(C)N(C)C(C)(C)C4)nc3c2)cc1C(N)=O` (single isomer, unassigned) [Compound 1108], the IC50 is below 50 nM at PRMT5 [1]; below 100 nM in assay [2]; below 50 nM on PRMT5 [3]; below 50 nM at PRMT5 [4]; below 1000 nM in assay [5]; below 100 nM in assay [6] (setting [7]). In addition, the MTAP intact/deleted ratio entry in assay [6] (setting [8]) is recorded as “A (an IC50 ratio greater than or equal to 10 fold)”.

On to `COc1ncc(NC(=O)C(=O)N2C[C@@H](C)CC[C@@H]2c2ccc3sc(C4(CN(C)C)CC4)nc3c2)cc1C(N)=O` (single isomer, unassigned) [Compound 1109], for which the IC50 on PRMT5 [1] is below 50 nM; in assay [2] it was 100 to 1000 nM; on PRMT5 [3], below 50 nM; on PRMT5 [4] it was below 50 nM; in assay [5], below 1000 nM; in assay [6] (setting [7]) it was below 100 nM. In addition, in assay [6] (setting [8]), the MTAP intact/deleted ratio result is reported as “A (an IC50 ratio greater than or equal to 10 fold)”.

As for `CCc1cc(NC(=O)C(=O)N2CC(C)CCC2c2ccc(N3CCC4C(CCCN4C)C3)cc2)cnc1N` (single isomer, unassigned) [Compound 1111], the IC50 at PRMT5 [1] was 50 to 500 nM; in assay [2], 100 to 1000 nM; at PRMT5 [3] it was below 50 nM; on PRMT5 [4] it was below 50 nM; in assay [5], below 1000 nM; in assay [6] (setting [7]), below 100 nM. In addition, the MTAP intact/deleted ratio entry in assay [6] (setting [8]) is reported as “A (an IC50 ratio greater than or equal to 10 fold)”.

For `CCc1cc(NC(=O)C(=O)N2C[C@H](C)CC[C@H]2c2ccc(N3CCN(C)CC3)cc2)cnc1N` (single isomer, unassigned) [Compound 1116], the IC50 on PRMT5 [1] was above 500 nM; in assay [2], above 1000 nM; at PRMT5 [3], above 500 nM; at PRMT5 [4] it was above 500 nM; in assay [5], above 10000 nM; in assay [6] (setting [7]), above 1000 nM.

For the molecule `C[C@H]1CC[C@H](c2cccc(Cl)c2)N(C(=O)C(=O)Nc2cnc(N)c(C3CC3)c2)C1` (single isomer, unassigned) [Compound 1119], the IC50 is 50 to 500 nM on PRMT5 [1]; 100 to 1000 nM in assay [2]; below 50 nM at PRMT5 [3]; below 50 nM on PRMT5 [4]; below 1000 nM in assay [5]; below 100 nM in assay [6] (setting [7]). Further, the MTAP intact/deleted ratio result in assay [6] (setting [8]) was “A (an IC50 ratio greater than or equal to 10 fold)”.

On to `Cc1cc(NC(=O)C(=O)N2C[C@H](C)CC[C@H]2c2cc3cn[nH]c3s2)cnc1N` (single isomer, unassigned) [Compound 1120], for which the IC50 on PRMT5 [1] was above 500 nM; in assay [2], above 1000 nM; at PRMT5 [3], above 500 nM; at PRMT5 [4], above 500 nM; in assay [5], above 10000 nM; in assay [6] (setting [7]), above 1000 nM.

As for `Cc1cc(NC(=O)C(=O)N2C[C@H](C)CC[C@H]2c2cccc(N3CCN(C)CC3)c2)cnc1N` (single isomer, unassigned) [Compound 1121], the IC50 was above 500 nM on PRMT5 [1]; above 1000 nM in assay [2]; above 500 nM on PRMT5 [3]; above 500 nM on PRMT5 [4]; above 10000 nM in assay [5]; above 1000 nM in assay [6] (setting [7]).

Consider `C[C@H]1CC[C@H](c2ccc3sc(CCN(C)C)nc3c2)N(C(=O)C(=O)Nc2cncc(C(N)=O)c2)C1` (single isomer, unassigned) [Compound 1128], for which the IC50 at PRMT5 [1] is above 500 nM; in assay [2], above 1000 nM; at PRMT5 [3], above 500 nM; at PRMT5 [4], above 500 nM; in assay [5], 1000 to 10000 nM; in assay [6] (setting [7]), 100 to 1000 nM.

On to `CCc1cc(NC(=O)C(=O)N2C[C@@H](C)CC[C@@H]2c2ccc3sc([C@H]4CCN(C)C(C)(C)C4)nc3c2)cnc1N` (single isomer, unassigned) [Compound 1129], for which the IC50 on PRMT5 [1] was 50 to 500 nM; in assay [2] it was below 100 nM; at PRMT5 [3], below 50 nM; at PRMT5 [4], below 50 nM; in assay [5], below 1000 nM; in assay [6] (setting [7]) it was below 100 nM. Further, the MTAP intact/deleted ratio result in assay [6] (setting [8]) is given as “B (an IC50 ratio greater than or equal to 3 fold but lower than 10 fold)”.

Regarding `CO[C@@H]1C[C@@H](c2ccc3scnc3c2)N(C(=O)C(=O)Nc2cnc(N)c(C)c2)C[C@@H]1C` (single isomer, unassigned) [Compound 1130], the IC50 at PRMT5 [1] was above 500 nM; in assay [2] it was above 1000 nM; at PRMT5 [3], above 500 nM; on PRMT5 [4] it was above 500 nM; in assay [5], above 10000 nM; in assay [6] (setting [7]), above 1000 nM.

Consider `CCc1cc(NC(=O)C(=O)N2CC(C)CCC2c2ccc(N3CCC4C(CCCN4C)C3)cc2)cnc1N` (single isomer, unassigned) [Compound 1132], for which the IC50 on PRMT5 [1] was 50 to 500 nM; in assay [2], 100 to 1000 nM; on PRMT5 [3] it was below 50 nM; at PRMT5 [4], below 50 nM; in assay [5], below 1000 nM; in assay [6] (setting [7]), below 100 nM. Further, the MTAP intact/deleted ratio entry in assay [6] (setting [8]) is “A (an IC50 ratio greater than or equal to 10 fold)”.
